Assay results reported in patent publication US20240376153A1, “CNP CYCLIC PEPTIDE, AND MEDICINE, EXTERNAL PREPARATION AND COSMETIC EACH CONTAINING SAID CYCLIC PEPTIDE” (Igisu Co., Ltd., priority 2015, published 2024).
Entries after “also recorded” stand apart in the source; their conditions may differ. Positions of bridges follow the written chain, without caps; N, C: chain ends. Residues, ends and D or L forms follow the SMILES beside them. No end group written: not given here.

Key:
[1] = system: nasal cavity, the affected site; assay: Effect on nose of cyclic peptides in which amino acid was substituted; settings: for irritation upon nasal application: nasal application once/day
Description: The obtained cyclic peptide was combined with purified water at 1, 5, 30, 100, 500 μg/ml and applied to the affected site. Formulations A to E in the tables refers to the cyclic peptide of 1, 5, 30, 100, 500 μg/ml, respectively.

[2] = system: affected site of psoriasis; assay: Effect of C-ring / CNP gel formulation on psoriasis; type: in vivo, human; settings: psoriasis patient P6; after 3 days from the application
Description: Followings are the summary of the therapeutic effects for psoriasis cases. As described above, the C-ring gel formulation was applied to the affected site of psoriasis, and changes in symptoms before and after the application were observed. When possible, as a comparative example, the CNP gel formulation described above was applied onto another affected site of the same subject where the C-ring gel formulation had not been applied, and changes in symptoms before and after the application were observed. Examination result is given in tables below with subjects' age, sex and symptoms, and prescription for the subjects.

[3] = system: normal subjects who have symptoms of lip roughness; assay: Lip mucosal condition after application of C-ring gel formulation; type: in vivo, human; settings: lip roughness (cases I1-I5); 1 μM, 1 application
Description: To normal subjects who have symptoms of lip roughness, the C-ring gel formulation was applied and changes in lip mucosal conditions were observed and summarized in the following table. Changes in the mucosal condition were judged based on based on cenesthesic evaluation by the subject and objective observation by the inventor as a physician.

## CC[C@H](C)[C@@H]1NC(=O)[C@H](CCCNC(=N)N)NC(=O)[C@H](CC(=O)O)NC(=O)[C@H](CC(C)C)NC(=O)[C@H](CCCCN)NC(=O)[C@H](CC(C)C)NC(=O)CNC(=O)[C@H](Cc2ccccc2)NC(=O)[C@@H](N)CSSC[C@@H](C(=O)O)NC(=O)CNC(=O)[C@H](CCSC)NC(=O)CNC(=O)[C@H](CO)NC(=O)[C@H](CCSC)NC(=O)[C@H](CO)NC(=O)CNC1=O [SEQ ID NO: 20] (H-CFGLKLDRIGSMSGMGC-OH; disulfide 1-17; N-terminus and C-terminus assumed)
[1]; Formulation C = 30 μg/ml
  irritation upon nasal application: There was no irritation upon nasal application.

## CC[C@H](C)[C@@H]1NC(=O)[C@H](CCCNC(=N)N)NC(=O)[C@H](CC(=O)O)NC(=O)[C@H](CC(C)C)NC(=O)[C@H](CCCCN)NC(=O)[C@H](CC(C)C)NC(=O)CNC(=O)[C@H](Cc2ccccc2)NC(=O)[C@@H](N)CSSC[C@@H](C(=O)O)NC(=O)CNC(=O)[C@H](Cc2ccccc2)NC(=O)CNC(=O)[C@H](CO)NC(=O)[C@H](CCSC)NC(=O)[C@H](CO)NC(=O)CNC1=O [SEQ ID NO: 21] (H-CFGLKLDRIGSMSGFGC-OH; disulfide 1-17; N-terminus and C-terminus assumed)
[1]; Formulation C = 30 μg/ml
  irritation upon nasal application: upon blowing. There was no irritation upon nasal

## CC[C@H](C)[C@@H]1NC(=O)[C@H](CCCNC(=N)N)NC(=O)[C@H](CC(=O)O)NC(=O)[C@H](CC(C)C)NC(=O)[C@H](CCCCN)NC(=O)[C@H](CC(C)C)NC(=O)[C@H](C)NC(=O)[C@H](Cc2ccccc2)NC(=O)[C@@H](N)CSSC[C@@H](C(=O)O)NC(=O)CNC(=O)[C@H](CC(C)C)NC(=O)CNC(=O)[C@H](CO)NC(=O)[C@H](CCSC)NC(=O)[C@H]([C@@H](C)O)NC(=O)CNC1=O [SEQ ID NO: 33] (H-CFALKLDRIGTMSGLGC-OH; disulfide 1-17; N-terminus and C-terminus assumed)
[1]; Formulation C = 30 μg/ml
  irritation upon nasal application: There was no irritation upon nasal application.

## CC[C@H](C)[C@@H]1NC(=O)[C@H](CCCNC(=N)N)NC(=O)[C@H](CC(=O)O)NC(=O)[C@H](CC(C)C)NC(=O)[C@H](CCCCN)NC(=O)[C@H](CC(C)C)NC(=O)[C@H](C)NC(=O)[C@H](Cc2ccccc2)NC(=O)[C@@H](N)CSSC[C@@H](C(=O)O)NC(=O)CNC(=O)[C@H](CC(C)C)NC(=O)CNC(=O)[C@H]([C@@H](C)O)NC(=O)[C@H](CCSC)NC(=O)[C@H](CO)NC(=O)CNC1=O [SEQ ID NO: 34] (H-CFALKLDRIGSMTGLGC-OH; disulfide 1-17; N-terminus and C-terminus assumed)
[1]; Formulation B = 5 μg/ml
  irritation upon nasal application: There was no irritation upon nasal application.

## CC[C@H](C)[C@@H]1NC(=O)[C@H](CCCNC(=N)N)NC(=O)[C@H](CC(=O)O)NC(=O)[C@H](CC(C)C)NC(=O)[C@H](CCCCN)NC(=O)[C@H](CC(C)C)NC(=O)CNC(=O)[C@H](Cc2ccccc2)NC(=O)[C@@H](N)CSSC[C@@H](C(=O)O)NC(=O)CNC(=O)[C@H](CC(C)C)NC(=O)CNC(=O)[C@H]([C@@H](C)O)NC(=O)[C@H](CCSC)NC(=O)[C@H]([C@@H](C)O)NC(=O)CNC1=O [SEQ ID NO: 39] (H-CFGLKLDRIGTMTGLGC-OH; disulfide 1-17; N-terminus and C-terminus assumed)
[1]; Formulation C = 30 μg/ml
  irritation upon nasal application: upon blowing. There was no irritation upon nasal

## CC[C@H](C)[C@@H]1NC(=O)CNC(=O)[C@H](CO)NC(=O)[C@H](CCSC)NC(=O)[C@H]([C@@H](C)O)NC(=O)CNC(=O)[C@H]([C@@H](C)CC)NC(=O)[C@H](CCCNC(=N)N)NC(=O)[C@H](CC(=O)O)NC(=O)[C@H](CC(C)C)NC(=O)[C@H](CCCCN)NC(=O)[C@H](CC(C)C)NC(=O)CNC(=O)[C@H](Cc2ccccc2)NC(=O)[C@@H](N)CSSC[C@@H](C(=O)O)NC(=O)CNC1=O [SEQ ID NO: 40] (H-CFGLKLDRIGTMSGIGC-OH; disulfide 1-17; N-terminus and C-terminus assumed)
[1]; Formulation C = 30 μg/ml
  irritation upon nasal application: There was no irritation upon nasal application.

## CC[C@H](C)[C@@H]1NC(=O)CNC(=O)[C@H]([C@@H](C)O)NC(=O)[C@H](CCSC)NC(=O)[C@H](CO)NC(=O)CNC(=O)[C@H]([C@@H](C)CC)NC(=O)[C@H](CCCNC(=N)N)NC(=O)[C@H](CC(=O)O)NC(=O)[C@H](CC(C)C)NC(=O)[C@H](CCCCN)NC(=O)[C@H](CC(C)C)NC(=O)CNC(=O)[C@H](Cc2ccccc2)NC(=O)[C@@H](N)CSSC[C@@H](C(=O)O)NC(=O)CNC1=O [SEQ ID NO: 41] (H-CFGLKLDRIGSMTGIGC-OH; disulfide 1-17; N-terminus and C-terminus assumed)
[1]; Formulation C = 30 μg/ml
  irritation upon nasal application: There was no irritation upon nasal application.

## CC[C@H](C)[C@@H]1NC(=O)CNC(=O)[C@H](CO)NC(=O)[C@H](CCSC)NC(=O)[C@H](CO)NC(=O)CNC(=O)[C@H]([C@@H](C)CC)NC(=O)[C@H](CCCNC(=N)N)NC(=O)[C@H](CC(=O)O)NC(=O)[C@H](CCSC)NC(=O)[C@H](CCCCN)NC(=O)[C@H](CC(C)C)NC(=O)[C@H](C)NC(=O)[C@H](Cc2ccccc2)NC(=O)[C@@H](N)CSSC[C@@H](C(=O)O)NC(=O)CNC1=O [SEQ ID NO: 50] (H-CFALKMDRIGSMSGIGC-OH; disulfide 1-17; N-terminus and C-terminus assumed)
[1]; Formulation C = 30 μg/ml
  irritation upon nasal application: stopped. There was no irritation upon nasal application.

## CC[C@H](C)[C@@H]1NC(=O)CNC(=O)[C@H](CO)NC(=O)[C@H](CCSC)NC(=O)[C@H]([C@@H](C)O)NC(=O)CNC(=O)[C@H]([C@@H](C)CC)NC(=O)[C@H](CCCNC(=N)N)NC(=O)[C@H](CC(=O)O)NC(=O)[C@H](CCSC)NC(=O)[C@H](CCCCN)NC(=O)[C@H](CC(C)C)NC(=O)CNC(=O)[C@H](Cc2ccccc2)NC(=O)[C@@H](N)CSSC[C@@H](C(=O)O)NC(=O)CNC1=O [SEQ ID NO: 52] (H-CFGLKMDRIGTMSGIGC-OH; disulfide 1-17; N-terminus and C-terminus assumed)
[1]; Formulation C = 30 μg/ml
  irritation upon nasal application: clear. There was no irritation upon nasal application.

## CC[C@H](C)[C@@H]1NC(=O)CNC(=O)[C@H]([C@@H](C)O)NC(=O)[C@H](CCSC)NC(=O)[C@H](CO)NC(=O)CNC(=O)[C@H]([C@@H](C)CC)NC(=O)[C@H](CCCNC(=N)N)NC(=O)[C@H](CC(=O)O)NC(=O)[C@H](CCSC)NC(=O)[C@H](CCCCN)NC(=O)[C@H](CC(C)C)NC(=O)CNC(=O)[C@H](Cc2ccccc2)NC(=O)[C@@H](N)CSSC[C@@H](C(=O)O)NC(=O)CNC1=O [SEQ ID NO: 53] (H-CFGLKMDRIGSMTGIGC-OH; disulfide 1-17; N-terminus and C-terminus assumed)
[1]; Formulation C = 30 μg/ml
  irritation upon nasal application: upon blowing. There was no irritation upon nasal

## CC[C@H](C)[C@@H]1NC(=O)CNC(=O)[C@H](CO)NC(=O)[C@H](CCSC)NC(=O)[C@H]([C@@H](C)O)NC(=O)CNC(=O)[C@H]([C@@H](C)CC)NC(=O)[C@H](CCCNC(=N)N)NC(=O)[C@H](CC(=O)O)NC(=O)[C@H](CCSC)NC(=O)[C@H](CCCCN)NC(=O)[C@H](CC(C)C)NC(=O)[C@H](C)NC(=O)[C@H](Cc2ccccc2)NC(=O)[C@@H](N)CSSC[C@@H](C(=O)O)NC(=O)CNC1=O [SEQ ID NO: 58] (H-CFALKMDRIGTMSGIGC-OH; disulfide 1-17; N-terminus and C-terminus assumed)
[1]; Formulation B = 5 μg/ml
  irritation upon nasal application: There was no irritation upon nasal application.

## CC[C@H](C)[C@@H]1NC(=O)CNC(=O)[C@H]([C@@H](C)O)NC(=O)[C@H](CCSC)NC(=O)[C@H](CO)NC(=O)CNC(=O)[C@H]([C@@H](C)CC)NC(=O)[C@H](CCCNC(=N)N)NC(=O)[C@H](CC(=O)O)NC(=O)[C@H](CCSC)NC(=O)[C@H](CCCCN)NC(=O)[C@H](CC(C)C)NC(=O)[C@H](C)NC(=O)[C@H](Cc2ccccc2)NC(=O)[C@@H](N)CSSC[C@@H](C(=O)O)NC(=O)CNC1=O [SEQ ID NO: 59] (H-CFALKMDRIGSMTGIGC-OH; disulfide 1-17; N-terminus and C-terminus assumed)
[1]; Formulation D = 100 μg/ml
  irritation upon nasal application: upon blowing. There was no irritation upon nasal

## Gly-Leu-Ser-Lys-Gly-Cys-Phe-Gly-Leu-Lys-Leu-Asp-Arg-Ile-Gly-Ser-Met-Ser-Gly-Leu-Gly-Cys (GLSKGCFGLKLDRIGSMSGLGC; disulfide 6-22; listed as Homo sapiens) [CNP, human wild-type C-type natriuretic peptide (American Peptide Company)]
[2]
  Results of two-sided application on lower thighs (FIG. 1): scales became inconspicuous but still remains, and erythema and infiltration were improved only a little
[3]
  Post-application Symptoms: remained on corner of mouth.

## SEEQ ID NO: 3 (CFGLKLDRIGSMSGLGC; disulfide 1-17)
[1]; nasal application for comparison of right and left in one subject, Formulation A = 1 μg/ml, once/day
  Post-treatment diagnostic skin impression: After 3 min, nasal discharge did not stop; also recorded: After 2 min, nose was not clear
